{"source": "patent US6203822A", "about": "“Gallium-containing compounds for the treatment of infections caused by intracellular pathogens and pathogens causing chronic pulmonary infection” (priority 1996, dated 2001)", "key": {"[1]": {"tested_on": "M. tuberculosis strain H37Ra", "type": "cell-based"}, "[2]": {"tested_on": "M. tuberculosis in human alveolar macrophages", "experiment": "M. tuberculosis in human alveolar macrophages, gallium nitrate with or without anti-tuberculous antibiotics", "type": "cell-based", "settings": "full doses of first line antibiotics, by 24 h", "procedure": "The gallium-containing compounds can also be tested for their ability to inhibit intracellular pathogens in tissue culture assays. In general, in these assays, the macrophages are placed in culture and incubated with the intracellular pathogen at an approximate cell to pathogen ratio of preferably at least 1:1 to about 1:5 cells:pathogen. Exemplary culture conditions are provided in the assays detailed in the Examples. For assays assessing M. tuberculosis infection, freshly adherent monocytes, 12 day-old adherent MDMs, or freshly adherent alveolar macrophages are incubated with M. tuberculosis, MAI or other intracellular bacteria at a ratio of about 1:1 to about 1:5 (phagocyte:bacterium). For M. tuberculosis or MAI, the bacteria are incubated with the phagocyte for 2 hr at 37° C. in RPMI/HEPES media with 2.5% serum or human serum albumin (serum-free). The cells are washed to remove non-adherent bacteria and monolayers are replated with RPMI containing 1% autologous serum (to maintain phagocyte viability but not to sustain extracellular growth of bacteria). Gallium-containing compounds, such as gallium nitrate, with, or without, other agents such as antibiotics, cytokines etc., are added about 24 hr. later and mycobacterial growth in cell lysates is then assessed over the next several days either by the radiometric BACTEC system or by colony-forming units on agarose plates. In each experiment, growth is assessed relative to control monolayers where no drug has been added.\nHuman alveolar macrophages were purified from healthy non-smoking adult volunteers and placed in monolayer culture. M. tuberculosis infected cells were treated with gallium nitrate as described in Example 2. Antituberculous antibiotics were added to wells alone or with gallium nitrate at 500 μM 24 h after M. tuberculosis infection. Antituberculous antibiotics tested included streptomycin (2.016 μg/ml), isoniazid (0.1 μg/ml), rifampin (2.0 μg/ml), and ethambutol (2.52 μg/ml) and the combination of antibiotics was denoted as SIRE. Antibiotics were obtained in lyophilized form from BACTEC. The antibiotics were reconstituted in sterile water per package instructions. With reference to FIG. 3, SIRE refers to combinations of streptomycin, isoniazid, rifampin and ethambutol while IR refers to combinations of Isoniazid and rifampin.\nInfected macrophages were cultured for 24 h, 48 h, or 120 h. Growth index readings of combined supernatants and cell lysates were measured in the BACTEC 460 TB system. […] Since these antibiotics have a number of unpleasant side effects that are reduced at reduced concentrations of the drugs, combined therapies that permit these antibiotics to be administered at lower doses when combined with gallium nitrate is significant and may help to promote better drug compliance in patients infected with M. tuberculosis."}, "[3]": {"tested_on": "macrophage ferritin and transferrin receptors", "settings": "Byrd, et al.; cited from earlier work"}, "[4]": {"tested_on": "M. tuberculosis in macrophages", "type": "cell-based"}, "bone cell": {"tested_on": "bone cell", "settings": "cancer patients, large scale clinical studies (Todd et al.); cited from earlier work"}, "[5]": {"tested_on": "macrophage monolayers (MDMs)", "experiment": "Gallium toxicity in uninfected MDM monolayers", "type": "cell-based, human", "settings": "in most cases, equivalent to untreated controls", "procedure": "To test the potential toxicity of gallium nitrate on the standard macrophage monolayers (MDMs) used in the assays described in this invention, uninfected MDM monolayers were incubated with various concentrations of gallium nitrate in the range used in the studies described in Examples 2 and 3.\nThere was no immediate difference in monolayer density between MDM monolayers with and without gallium nitrate treatment up to a gallium concentration of 2 mM. Results were based on counting napthol blue macrophage stained nuclei from the monolayer. These numbers directly correlate with the number of cells present. In most cases the integrity of the MDM monolayer in the presence of gallium was maintained for up to 37 days, equivalent to untreated, uninfected control cultures."}, "[6]": {"settings": "known from literature; cited from earlier work"}}, "note": "Where two headings read alike, the source gives them in different places.", "data": [{"compound": "transferrin: control cultures were treated with transferrin alone; Human apotransferrin (Sigma Chemicals)", "values": [{"measurement": "bacterial growth inhibition, control culture", "setting": "[1]; transferrin alone", "result": "no inhibition in bacterial growth"}]}, {"compound": "gallium transferrin: Human apotransferrin mixed 1:1 (by molar ratio) with gallium", "values": [{"measurement": "concentration of gallium with marked inhibition of growth", "setting": "[1]; growth index Day 10, broth culture, apotransferrin mixed 1:1 with gallium", "result": 75, "unit": "µM"}]}, {"compound": "[H]/N=C(/N)N[C@H]1[C@H](O)[C@@H](O)[C@H](O[C@@H]2O[C@@H](C)[C@](O)(C=O)[C@H]2O[C@@H]2O[C@@H](CO)[C@H](O)[C@@H](O)[C@@H]2NC)[C@@H](N/C(N)=N\\[H])[C@@H]1O", "note": "[streptomycin]", "values": [{"measurement": "growth inhibition by full doses of first line antibiotics", "setting": "[2]", "result": "quite potent"}]}, {"compound": "NNC(=O)c1ccncc1", "note": "[isoniazid]", "values": [{"measurement": "growth inhibition by full doses of first line antibiotics", "setting": "[2]", "result": "quite potent"}]}, {"compound": "interferon-γ: Human interferon-γ (Genzyme, Cambridge, Mass.), cytokine", "values": [{"measurement": "effect on expression of transferrin receptors", "setting": "[3]", "result": "down regulate expression of transferrin receptors"}, {"measurement": "effect on macrophage ferritin levels", "setting": "[3]", "result": "down regulate macrophage ferritin levels"}, {"measurement": "augmentation of gallium nitrate growth inhibition", "setting": "[4]; IFN-γ in combination with 0 to about 400 μM gallium nitrate", "result": "at least 50%"}, {"measurement": "augmentation of gallium nitrate growth inhibition", "setting": "[4]; interferon-γ various concentrations (0-1000U), gallium nitrate at 100 μM", "result": "≥ 50", "unit": "%"}]}, {"compound": "CO[C@H]1/C=C/O[C@@]2(C)Oc3c(C)c(O)c4c(O)c(c(/C=N/N5CCN(C)CC5)c(O)c4c3C2=O)NC(=O)/C(C)=C\\C=C\\[C@H](C)[C@H](O)[C@@H](C)[C@@H](O)[C@@H](C)[C@H](OC(C)=O)[C@@H]1C", "note": "[rifampin]", "values": [{"measurement": "growth inhibition by full doses of first line antibiotics", "setting": "[2]", "result": "quite potent"}]}, {"compound": "CC[C@@H](CO)NCCN[C@@H](CC)CO", "note": "[ethambutol]", "values": [{"measurement": "growth inhibition by full doses of first line antibiotics", "setting": "[2]", "result": "quite potent"}]}, {"compound": "[Ga]", "note": "[gallium]", "values": [{"measurement": "effect on bone cell morphology or viability", "setting": "bone cell", "result": "did not affect bone cell morphology or viability"}, {"measurement": "time integrity of MDM monolayer maintained in presence of gallium", "setting": "[5]", "result": "up to 37 days"}, {"measurement": "tissue accumulation", "setting": "[6]", "result": "accumulate in cells of mononuclear origin in the liver, kidney, spleen and lymphatic system"}]}]}
